Experiments:
[1] = test system: CL097 triggered IFNα release in human whole blood; assay: Ex vivo human IFNα release inhibition (human whole blood assay); type: cell-based; conditions: CL097 2 μg/mL, 3 h 30 min at 37° C.
Source text: 4.10.1. Ex Vivo Human IFNα and TNFα Release Inhibition (Human Whole Blood Assay)
The aim of the assay is to evaluate the activity of compounds of the invention on the activated TLR/IRAK-4 pathway in an ex vivo human whole blood setting. Toll-like receptors (TLRs) are pattern recognition receptors that recognize a wide variety of microbial molecules, called pathogen-associated molecular patterns (PAMPs). Human TLR7 and TLR8 recognize imidazoquinoline compounds (e.g., CL097—CAS n #1026249-18-2) and single stranded RNAs as their natural ligands. Activation of TLRs leads to the production of several cytokines (e.g., IFNα, TNFα, IL-8, IL-6) by the TLR agonist-treated cells, whereas IRAK4 leads to the production of IFNα. Cytokine release is used as readout in this assay and represents a measure for the level of inhibition of the TLR/IRAK-4 pathway by the tested compound. It should be noted that in the context of the complete organism, other sources for these cytokines exist that are not dependent on the TLR/IRAK-4 pathway, such as e.g., macrophages (upon activation of the Fcγ receptor (Yan et al., 2012)) or T cells (upon activation of the T cell receptor (Brehm et al., 2005)).
4.10.1.1. Experimental Design
Blood was collected from healthy volunteers into lithium heparin tubes by venipuncture, then gently inverted several times to prevent clotting and incubated for at least 15 min at 37° C. on a rocking mixer shaker. Then, 100 μL of blood was dispensed into polypropylene 96-well microplate and pre-incubated in duplicate with 0.3% DMSO or test compound at different concentrations (from 30 to 0.01 μM, 3-fold dilutions to get 0.3% DMSO at the final) for 15 min at 37° C. After this pre-incubation, blood was triggered with CL097 (2 μg/mL from 1 mg/mL solution in water; InvivoGen, tlrl-c97) for 3 h 30 min at 37° C. Microtubes were centrifuged at 5000×g for 10 min at 4° C. and approximately 40 μL of plasma were collected into a polystyrene 96-well plate. Plasma could be analyzed freshly, within 30 min after triggering, or frozen at −80° C. Finally, the quantification of TNFα and IFNα were performed in the plasma using AlphaLISA Kit for TNFα and IFNα according to the manufacturer's instructions and read on the Ensight (PerkinElmer).
A standard curve was created by plotting on log-log the mean […] on the y-axis against the concentration on the x-axis and a 4-parameters logistic regression (4PL) was made through the points. For each blood sample, the IFNα concentrations of the samples were determined from the fit. Data were then expressed as a percentage of inhibition (PIN) for each replicate using the formula:
With mean IFNα with CL097=mean IFNα concentration of replicate samples triggered with CL097; IFNαsample1=IFNα concentration of sample 1; mean IFNα with vehicle=mean IFNα concentration of replicate samples treated with vehicle.
Curve fitting for pIC50 determination were generated using mean PIN±sem. Graphs and pIC50 calculations were derived using Prism 5.03 software (GraphPad).

Mouse Hepatocyte = assay: Metabolic stability in hepatocytes (mouse); type: in vitro ADME; conditions: 1 μM test compound, cryopreserved mouse hepatocytes
Protocol: 4.6. Metabolic Stability in Hepatocytes
The aim of this assay is to determine the metabolic stability of the compound in hepatocytes (cryopreserved) of different species. Low hepatocyte stability may result in the formation of unwanted metabolites, high clearance, and therefore is not desirable.
The decrease in parent was assessed by measuring the percentage remaining by LC-MS/MS analysis.
A 10 mM stock solution of test compound in DMSO was first diluted in DMSO to 3 mM, and then in modified Krebs-Henseleit buffer (Sigma, K3753) to 5 μM. This compound dilution was added to a suspension of pooled cryopreserved hepatocytes (BioreclamationIVT) at 37° C. under gentle shaking.
Final reaction conditions were: 1 μM of test compound, 0.03% DMSO, 0.5 million viable hepatocytes/mL, and 75 μL incubation volume.
Testosterone (1 μM) and 7-hydroxycoumarin (1 μM) were used, respectively as phase I and phase II metabolic reaction controls.
After 0, 10, 20, 45, 90, 120 and 180 min of incubation, the reaction was terminated with 225 μL of MeCN:MeOH (2:1) containing 100 ng/mL of diclofenac as analytical internal standard. Samples were mixed, centrifuged and the supernatant analyzed by LC-MS/MS.
The instrument responses (ratios of test compound and internal standard peak areas) were referenced to the zero time point samples (considered as 100%) in order to determine the percentage of compound remaining.
Plots of percentage compound remaining were used to determine the intrinsic clearance in the hepatocyte incubations using the following equations:
Scaled Clint [L/h/kg]=Clint[μL/min/10^6 cells]*#(10^6) cells/g liver*60*( 1/10^6) Scaled Clint unbound [L/h/kg]=Clint [L/h/kg]/Fu,inc where: fu,inc equals hepatocyte binding, derived from microsomal binding (fu,mic) by following equation: […]

Row | IC50 ([1]; Homo sapiens) [nM] | IC50 [1] [nM] | Mouse Hepatocyte stability (Perc. remaining at 90 min) (Mouse Hepatocyte) [Perc.] | SMILES
1 | 500 to 1000 |  |  | COc1cn2nc(CC(F)C(C)(C)O)cc2cc1NC(=O)c1cccn(C2CC2)c1=O (single isomer, unassigned; enantiomer a) [Compound 25, 1-cyclopropyl-N-[2-(2-fluoro-3-hydroxy-3-methyl-butyl)-6-methoxy-pyrazolo[1,5-a]pyridin-5-yl]-2-oxo-pyridine-3-carboxamide Enantiomer A]
2 |  | 1000 to 5000 |  | COc1cn2nc(CC(F)C(C)(C)O)cc2cc1NC(=O)c1cccn(C2CC2)c1=O (single isomer, unassigned; enantiomer b) [Compound 26, 1-cyclopropyl-N-[2-(2-fluoro-3-hydroxy-3-methyl-butyl)-6-methoxy-pyrazolo[1,5-a]pyridin-5-yl]-2-oxo-pyridine-3-carboxamide Enantiomer B]
3 | 0.1 to 500 |  | 99.45 | COc1cn2nc(CCC(C)(C)O)cc2cc1NC(=O)c1cccn(C2CC2)c1=O [Compound 1, 1-cyclopropyl-N-[2-(3-hydroxy-3-methylbutyl)-6-methoxypyrazolo[1,5-a]pyridin-5-yl]-2-oxopyridine-3-carboxamide]
4 | 1000 to 5000 |  | 93 | CCOc1cn2nc(CCC(C)(C)O)cc2cc1NC(=O)c1cccn(C2CC2)c1=O [Compound 17, 1-cyclopropyl-N-[6-ethoxy-2-(3-hydroxy-3-methyl-butyl)pyrazolo[1,5-a]pyridin-5-yl]-2-oxo-pyridine-3-carboxamide]
5 | 500 to 1000 |  |  | COc1cn2nc(CC(F)C(C)(C)O)cc2cc1NC(=O)c1cccn(C2CC2)c1=O (centres unmarked) [Compound 22, 1-cyclopropyl-N-[2-(2-fluoro-3-hydroxy-3-methyl-butyl)-6-methoxy-pyrazolo[1,5-a]pyridin-5-yl]-2-oxo-pyridine-3-carboxamide]
6 | 500 to 1000 |  |  | [2H]C([2H])([2H])C(O)(CCc1cc2cc(NC(=O)c3cccn(C4CC4)c3=O)c(OC)cn2n1)C([2H])([2H])[2H] [Compound 23, 1-cyclopropyl-N-[6-methoxy-2-[4,4,4-trideuterio-3-hydroxy-3-(trideuteriomethyl)butyl]pyrazolo[1,5-a]pyridin-5-yl]-2-oxo-pyridine-3-carboxamide]
7 | 0.1 to 500 |  |  | [2H]C([2H])([2H])Oc1cn2nc(CCC(C)(C)O)cc2cc1NC(=O)c1cccn(C2CC2)c1=O [Compound 24, 1-cyclopropyl-N-[2-(3-hydroxy-3-methylbutyl)-6-(trideuteriomethoxy)pyrazolo[1,5-a]pyridin-5-yl]-2-oxopyridine-3-carboxamide]

The next lines start with the compound.

Row | SMILES | IC50 ([1]; Homo sapiens) [nM] | IC50 [1] [nM] | Mouse Hepatocyte stability (Perc. remaining at 90 min) (Mouse Hepatocyte) [Perc.]
8 | COc1cn2nc(CCC(C)(C)O)cc2cc1NC(=O)c1cccn(C)c1=O [Compound 2, N-[2-(3-hydroxy-3-methylbutyl)-6-methoxypyrazolo[1,5-a]pyridin-5-yl]-1-methyl-2-oxopyridine-3-carboxamide] | 500 to 1000 |  | 94.1
9 | COc1cn2nc(CCC(C)(C)O)cc2cc1NC(=O)c1cccc(C(F)(F)F)n1 [Compound 3, N-[2-(3-hydroxy-3-methylbutyl)-6-methoxypyrazolo[1,5-a]pyridin-5-yl]-6-(trifluoromethyl)pyridine-2-carboxamide] | 1000 to 5000 |  | 10.17
10 | CC(C)(O)CCc1cc2cc(NC(=O)c3cccc(C(F)(F)F)n3)c(C(N)=O)cn2n1 [Compound 4, 2-(3-hydroxy-3-methylbutyl)-5-[[6-(trifluoromethyl)pyridine-2-carbonyl]amino]pyrazolo[1,5-a]pyridine-6-carboxamide] | 1000 to 5000 |  | 
11 | CNC(=O)c1cn2nc(CCC(C)(C)O)cc2cc1NC(=O)c1cccc(C(F)(F)F)n1 [Compound 5, 2-(3-hydroxy-3-methylbutyl)-N-methyl-5-[[6-(trifluoromethyl)pyridine-2-carbonyl]amino]pyrazolo[1,5-a]pyridine-6-carboxamide] | 1000 to 5000 |  | 76.25
12 | COc1cn2nc(CCC(C)(C)O)cc2cc1NC(=O)c1cccn(C(F)F)c1=O [Compound 7, 1-(difluoromethyl)-N-[2-(3-hydroxy-3-methyl-butyl)-6-methoxy-pyrazolo[1,5-a]pyridin-5-yl]-2-oxo-pyridine-3-carboxamide] | 1000 to 5000 |  | 108.25
13 | CNC(=O)c1cn2nc(C3CCCS(=O)(=O)C3)cc2cc1NC(=O)c1cccc(C(F)(F)F)n1 (centres unmarked) [Compound 8, 2-(1,1-dioxothian-3-yl)-N-methyl-5-[[6-(trifluoromethyl)pyridine-2-carbonyl]amino]pyrazolo[1,5-a]pyridine-6-carboxamide] |  |  | 75.15
14 | CCOc1cn2nc(CCC(C)(C)O)cc2cc1NC(=O)c1cccn(C(F)F)c1=O [Compound 9, 1-(difluoromethyl)-N-[6-ethoxy-2-(3-hydroxy-3-methyl-butyl)pyrazolo[1,5-a]pyridin-5-yl]-2-oxo-pyridine-3-carboxamide] | 1000 to 5000 |  | 83.65
15 | CNC(=O)c1cn2nc(C3CCN(C)CC3)cc2cc1NC(=O)c1cccc(C(F)(F)F)n1 [Compound 12, N-methyl-2-(1-methyl-4-piperidyl)-5-[[6-(trifluoromethyl)pyridine-2-carbonyl]amino]pyrazolo[1,5-a]pyridine-6-carboxamide] | 1000 to 5000 |  | 97.05
16 | COc1c(NC(=O)c2cccn(C3CC3)c2=O)cc2cc(CCC(C)(C)O)nn2c1C [Compound 13, 1-cyclopropyl-N-[2-(3-hydroxy-3-methyl-butyl)-6-methoxy-7-methyl-pyrazolo[1,5-a]pyridin-5-yl]-2-oxo-pyridine-3-carboxamide] |  |  | 87.8
17 | CNC(=O)c1cn2nc(C3CCOCC3)cc2cc1NC(=O)c1cccc(C(F)F)n1 [Compound 15, 5-[[6-(difluoromethyl)pyridine-2-carbonyl]amino]-N-methyl-2-tetrahydropyran-4-yl-pyrazolo[1,5-a]pyridine-6-carboxamide] | > 5000 |  | 
18 | NC(=O)c1cn2nc(C3CCOCC3)cc2cc1NC(=O)c1cccc(C(F)F)n1 [Compound 16, 5-[[6-(difluoromethyl)pyridine-2-carbonyl]amino]-2-tetrahydropyran-4-yl-pyrazolo[1,5-a]pyridine-6-carboxamide] |  |  | 51.75
19 | CCOc1cn2nc(CCC(C)(C)O)cc2cc1NC(=O)c1cccn(C)c1=O [Compound 18, N-[6-ethoxy-2-(3-hydroxy-3-methyl-butyl)pyrazolo[1,5-a]pyridin-5-yl]-1-methyl-2-oxo-pyridine-3-carboxamide] | 1000 to 5000 |  | 93
20 | CNC(=O)c1cn2nc(CCC(C)(C)O)cc2cc1NC(=O)c1cccc(C(F)F)n1 [Compound 19, 5-[[6-(difluoromethyl)pyridine-2-carbonyl]amino]-2-(3-hydroxy-3-methyl-butyl)-N-methyl-pyrazolo[1,5-a]pyridine-6-carboxamide] | 500 to 1000 |  | 
